The record followed here is ChEMBL document CHEMBL3045329, “Synthesis, biological evaluation, and pharmacokinetic profiling of benzophenone derivatives as tumor necrosis factor-alpha and interleukin-6 inhibitors” (Med Chem Res, 2012).

Structures are written as SMILES. pIC50: −log10 of the molar value.

Data set [1] can be described thus: Cytotoxicity against Homo sapiens (human) […] at 10 uM after 24 hr. The data set is classed as cell-based. To be noted: cck8, 24 h.
The subject of data set [2] is THP-1. Kind of data set: Anti-inflammatory activity in Homo sapiens (human) PMA-stimulated THP1 cells assessed as inhibition of LPS-induced IL6 production at 10 uM incubated for 30 min prior to LPS-challenge measured after 24 hr by ELISA. The data set is classed as functional. (In an ELISA, binding on a coated surface is turned into a signal by an enzyme label.)
The test system of data set [3] is THP-1. Kind of data set: Anti-inflammatory activity in Homo sapiens (human) PMA-stimulated THP1 cells assessed as inhibition of LPS-induced TNFalpha production at 10 uM incubated for 30 min prior to LPS-challenge measured after 24 hr by ELISA. The data set is classed as functional. Conditions: values are per cent of control.
In data set [4] the test system is THP-1. In words: Anti-inflammatory activity in Homo sapiens (human) PMA-stimulated THP1 cells assessed as inhibition of LPS-induced IL6 production incubated for 30 min prior to LPS-challenge measured after 24 hr by ELISA. The data set is classed as functional, cell-based.
A short description of data set [5]: Cytotoxicity against Homo sapiens (human) […] cells at 1 uM after 24 hr. In kind it is cell-based.
Data set [6] relates to THP-1. Kind of data set: Anti-inflammatory activity in Homo sapiens (human) PMA-stimulated THP1 cells assessed as inhibition of LPS-induced IL6 production at 1 uM incubated for 30 min prior to LPS-challenge measured after 24 hr by ELISA. In kind it is functional.
Data set [7] relates to THP-1. In words: Anti-inflammatory activity in Homo sapiens (human) PMA-stimulated THP1 cells assessed as inhibition of LPS-induced TNFalpha production at 1 uM incubated for 30 min prior to LPS-challenge measured after 24 hr by ELISA. In kind it is functional.

As a reminder, the inhibition is the drop in the measured response relative to a control, in per cent. `COc1cc(OC)c(C(=O)c2cccc(Cl)c2)c(O)c1Br`: the Activity in data set [1] is reported as 33%. In the data set with THP-1 [2], the inhibition at 10 µM amounted to 78%. For the same compound, in the data set with THP-1 [3], the response, % of control at 10 µM is 10%.

In data set [1], `COc1cc(OC)c(C(=O)c2ccccc2)c(O)c1Br` yielded an Activity of 38%. In addition, the inhibition at 10 µM in the data set with THP-1 [2] amounted to 80%. In addition, the response, % of control at 10 µM in the data set on THP-1 [3] is 19%.

As a reminder, the pIC50 is the IC50 on a negative log10 scale, so that one unit is a factor of ten. For the compound `COc1cc(OC)c(C(=O)c2ccc(F)cc2)c(O)c1Br`, the Activity in data set [1] stood at 19%. Also, in the data set with THP-1 [2], the inhibition at 10 µM was 63%. The response, % of control at 10 µM in the data set on THP-1 [3] came to 0%. In addition, the negative-log IC50 (pIC50) in the data set on THP-1 [4] is 6.72.

Turning to `COc1ccc(C(=O)c2c(OC)cc(OC)c(Br)c2O)cc1`, the Activity in data set [1] is on record as 34%. Besides, the inhibition at 10 µM in the data set on THP-1 [2] is 82%. For the same compound, the response, % of control at 10 µM in the data set on THP-1 [3] amounted to 6%.

In turn, `COc1cc(OC)c(C(=O)c2ccccc2F)c(O)c1Br` had an Activity in data set [1] of 46%. For the same compound, the inhibition at 10 µM in the data set on THP-1 [2] came to 76%. Moreover, the response, % of control at 10 µM in the data set with THP-1 [3] was 0%.

Take `COc1cc(OC)c(C(=O)c2ccccc2C)c(O)c1Br`: the Activity in data set [1] is reported as 40%. Besides, the inhibition at 10 µM in the data set on THP-1 [2] was determined as 70%. Also, the response, % of control at 10 µM with THP-1 [3] was 0%.

`C[C@@H]1C[C@H]2[C@@H]3CCC4=CC(=O)C=C[C@]4(C)[C@@]3(F)[C@@H](O)C[C@]2(C)[C@@]1(O)C(=O)CO` [DEXAMETHASONE] displayed an Activity in data set [5] of 0%. The inhibition at 1 µM in the data set on THP-1 [6] was 94%; in the data set with THP-1 [7] it was 72%.

For `COc1cc(OC)c(C(=O)c2cccc(C)c2)c(O)c1Br`, the Activity in data set [1] came to 32%. The inhibition at 10 µM in the data set on THP-1 [2] amounted to 76%. In addition, in the data set with THP-1 [3], the response, % of control at 10 µM turned out to be 4%.
